For one compound, IC50 results are on record in article PMC6366094, “Suppression of Myeloid Cell Arginase Activity leads to Therapeutic Response in a NSCLC Mouse Model by Activating Anti-Tumor Immunity” (Journal for Immunotherapy of Cancer, 2019).

One may read the IC50 as the midpoint of a concentration-inhibition curve. A high value points to a need for much substance.

The target in test [1] is T1, human ARG2 (arginase 2) (Homo sapiens, UniProt P78540).
T1 sequence (P78540 23-354): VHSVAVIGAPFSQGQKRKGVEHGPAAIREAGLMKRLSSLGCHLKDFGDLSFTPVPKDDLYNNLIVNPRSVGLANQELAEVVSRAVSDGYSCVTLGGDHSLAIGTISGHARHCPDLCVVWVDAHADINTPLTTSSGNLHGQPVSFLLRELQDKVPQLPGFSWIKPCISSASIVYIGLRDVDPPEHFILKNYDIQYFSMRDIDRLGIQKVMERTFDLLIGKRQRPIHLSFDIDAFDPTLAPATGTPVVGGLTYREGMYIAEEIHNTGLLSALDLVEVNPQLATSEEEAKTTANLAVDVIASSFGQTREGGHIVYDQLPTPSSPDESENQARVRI
Kind of test: enzymatic arginase inhibition assay (data not shown). The class given is biochemical.

Test [2] concerns the target T2, human ARG1 (arginase 1) (Homo sapiens, UniProt P05089).
T2 sequence (P05089 1-322): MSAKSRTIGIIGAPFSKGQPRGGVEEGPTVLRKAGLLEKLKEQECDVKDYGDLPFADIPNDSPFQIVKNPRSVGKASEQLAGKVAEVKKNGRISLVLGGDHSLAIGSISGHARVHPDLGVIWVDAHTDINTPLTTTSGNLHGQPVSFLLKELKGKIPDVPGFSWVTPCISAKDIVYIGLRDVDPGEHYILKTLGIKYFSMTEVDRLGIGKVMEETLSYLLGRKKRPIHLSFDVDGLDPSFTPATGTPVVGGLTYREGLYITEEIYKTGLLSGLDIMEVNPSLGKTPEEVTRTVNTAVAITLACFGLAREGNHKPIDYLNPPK
The description is as above. In kind it is biochemical.

On to `N[C@](CCCCB(O)O)(CCN1CCCCC1)C(=O)O` [compound 9, (R)-2-amino-6-borono-2-(2-(piperidin-1-yl)ethyl) hexanoic acid], for which the IC50 in test [1] stood at 2700 nM; in test [2], 1100 nM.
